The values below come from BindingDB's records for PubMed 35114538 (Institute For Pharmaceutical Research Saarland (Hips), 2022).

pIC50: −log10 of the molar value. Where a SMILES comes first, the peptide text is derived from it. Bridges are numbered along the chain shown (N, C = ends). Triazole bridges read from a SMILES are 1,4-linked. [ ]: non-standard residue; d: D form. Ala(indol-2-yl) = N[C@@H](Cc1cc2ccccc2[nH]1)C(=O)O; Dap(N3) = [N-]=[N+]=NC[C@H](N)C(=O)O; Aha = [N-]=[N+]=NCC[C@H](N)C(=O)O; Pra = C#CC[C@H](N)C(=O)O

The experiment addresses Carbon storage regulator homolog RsmA (Pseudomonas aeruginosa). Briefly: Binding affinity towards Pseudomonas aeruginosa RsmA measured by fluorescence polarization assay.
As for `CC(=O)N[C@H](C(=O)N[C@H]1CCn2nncc2C[C@@H](C(=O)N[C@@H](Cc2c[nH]c3ccccc23)C(N)=O)NC(=O)[C@H](CC(C)C)NC(=O)[C@H](CCC(=O)O)NC(=O)[C@H](CO)NC1=O)C(C)C`, the pIC50 is 4.43.

For `CC(=O)N[C@H](C(=O)N[C@H]1Cn2cc(nn2)C[C@@H](C(=O)N[C@@H](Cc2c[nH]c3ccccc23)C(N)=O)NC(=O)[C@H](CC(C)C)NC(=O)[C@H](CCC(=O)O)NC(=O)[C@H](CO)NC1=O)C(C)C` (Ac-V[Dap(N3)]SEL[Pra]W-NH2; triazole 2-6), the pIC50 is 4.64. Compared with the last compound, the pIC50 is 0.21 log units higher.

Regarding `CC(=O)N[C@H](C(=O)N[C@H]1Cc2cn(nn2)CC[C@@H](C(=O)N[C@@H](Cc2c[nH]c3ccccc23)C(N)=O)NC(=O)[C@H](CC(C)C)NC(=O)[C@H](CCC(=O)O)NC(=O)[C@H](CO)NC1=O)C(C)C` (Ac-V[Pra]SEL[Aha]W-NH2; triazole 2-6), the pIC50 was 4.52. This pIC50 and that of the compound before are within 0.2 log units of each other.

`CC(=O)N[C@H](C(=O)N[C@H]1Cc2cn(nn2)C[C@@H](C(=O)N[C@@H](Cc2c[nH]c3ccccc23)C(N)=O)NC(=O)[C@H](CC(C)C)NC(=O)[C@H](CCC(=O)O)NC(=O)[C@H](CO)NC1=O)C(C)C` (Ac-V[Pra]SEL[Dap(N3)]W-NH2; triazole 2-6) gave a pIC50 of 4.70.

For the compound `CC(=O)N[C@H](C(=O)N[C@H]1Cc2cnnn2CC[C@@H](C(=O)N[C@@H](Cc2c[nH]c3ccccc23)C(N)=O)NC(=O)[C@H](CC(C)C)NC(=O)[C@H](CCC(=O)O)NC(=O)[C@H](CO)NC1=O)C(C)C`, the pIC50 is 4.35.

Consider `CC(=O)N[C@H](C(=O)N[C@H]1CSSC[C@@H](C(=O)N[C@@H](Cc2cc3ccccc3[nH]2)C(N)=O)NC(=O)[C@H](CC(C)C)NC(=O)[C@H](CCC(=O)O)NC(=O)[C@H](CO)NC1=O)C(C)C` (Ac-VCSELC[Ala(indol-2-yl)]-NH2; disulfide 2-6), for which the pIC50 is 3.57.
